This note sets out measurements from patent publication US4003945A, “Novel cyclopropanecarboxylates” (Sumitomo Chemical Company, Limited, priority 1973, dated 1977).

Data set [1] relates to leafhoppers of resistant and susceptible strains. Description: Emulsion sprayed on rice seedlings, leafhoppers released (Example XVI). The conditions noted are these: emulsion diluted to 50 times. In kind it is in vivo, leafhopper. The method, then:
About 20 rice seedlings, cultivated for 20 days after sowing in a flower pot of 8.5 cm in diameter were sprayed with each of the present compounds (31, 32, 35, 39, 40, 42, 45, 48, 55, 59, 60, 63, 131 - 134, 139) in the form of an emulsion which were diluted to 50 times. Each pot was put into the beaker and covered with gauze, into which leafhoppers of resistant and susceptible strains, respectively, were released in each beaker. And the number of knocked down insects after 1 hour and the mortality after 24 hours were counted. As a result, the knock down per centage was more than 50% and the mortality was more than 80% in each case.

In the next data set the test system is adults of houseflies. Description: Oil preparation sprayed on Campbell's turn table (Example XX). In kind it is in vivo, housefly. The note with it: Musca domestica, 24 h; Table 6; 1% oil preparation 5 ml, 10 minutes exposure, next day. The method, then:
The oil preparation obtained as in Example B (5 ml) was sprayed by the use of a Campbell's turn table [Soap & Sanitary Chemicals, Vol. 14, No. 6, 119 (1938) ] on 100 adults of houseflies were exposed to the spray for 10 minutes. The houseflies were then allowed to stand with feeding. On the next day, dead and alive were observed.

The nature of data set [2]: Oral acute toxicity in male mice (Example XXI). The note with it: mouse, in vivo, Table 7, male mice of about 20 g. The text has this: An emulsion prepared by diluting with water the present compounds 31, 32, 33, 34, 35, 46, 63, in the form of an emulsifiable concentrate was orally administrated to male mice of about 20 g in body weight.
Data set [3] deals with Full grown larvae of the Northern house mosquito. Description: Larvicidal test in beaker with diluted emulsifiable concentrate (Example XIX). Type of data set: in vivo. The conditions noted are these: Table 5; after 24 hours. The method, then: 30 Full grown larvae of the Northern house mosquito were released into the beaker with 200 ml of dilution of each emulsifiable concentrates which obtained in Example X.

Another data set relates to tobacco cut worm. Description: Dust on Chinese cabbages in the field (Example XVIII). In kind it is in vivo. The note with it: 5% dust, 3kg/10 ares, for 2 months. The text has this:
Each 5% dust of the present compounds 31, 32, 62, 63 was spread in a ratio of 3kg/10 ares on the Chinese cabbages of 40 days after sowing in the field. And about 9,000 eggs of tobacco cut worm were put on the leaves of the Chinese cabbages per 10 ares every 5 days for a month.

In a further data set the test system is adult planthoppers. Description: Residual effect on sprayed rice seedlings (Example XV). Type of data set: in vivo. The conditions noted are these: concentrate diluted to 400 times; observed 24 hours after release. The method, then: About 20 rice seedlings, cultivated for 20 days after sowing in a flower pot of 8.5 cm in diameter, were sprayed with each of the emulsifiable concentrates obtained as in Example X which were diluted to 400 times with water. After air-drying, each pot was covered with a wire cage, into which 20 adult planthoppers were released as time elapsed. And the observation was made after 24 hours.

A further data set concerns housefly adults. Description: Oil spray, Campbel's turn table, lethal concentration (Test Example 2). Type of data set: in vivo. The conditions noted are these: Musca domestica, 24 h. As for the experimental part: A group of about 100 housefly adults was exposed to descending spray for 10 minutes, thereafter was transferred to an observation cage, was fed, and was allowed to stand at room temperature.
After a day, the dead and alive were counted to calculate the lethal ratio.

The test system of data set [4] is larvae of tobacco cut worm, diamondback moth and common cabbage worms. Description: Fumigation of Chinese cabbages in vinyl house with heated wettable powder (Example XIV). Type of data set: in vivo. The note with it: 10 grams of 40% wettable powder per 30 m^2 compartment. The text has this:
In the vinyl house, the Chinese cabbages were cultivated and the leaves were parasitized with the larvae of tobacco cut worm, diamondback moth and common cabbage worms.
The vinyl house (its height was 2 m) was divided into compartments of 30 m^2 in area and 10 grams of the present compound (1, 4) in the form of 40% wettable powder was put into the plate heated by fire.

In the next data set the test system is adult leafhoppers. Description: Granule applied to rice plants in Wagner pot (Example XIII). In kind it is in vivo, leafhopper. The conditions noted are these: granule of Example W, 10 kg/10 ares. As for the experimental part:
Rice plants at the tillering stage were grown in Wagner pots, and the depth of water was kept at 5 cm.
The present compound (4) obtained in Example W was put into the Wagner pot with 10 kg/10 ares, and the said pot was covered with a wire cage into which 20 adult leafhoppers were released.

Data set [5] deals with 3rd or 4th instar larvae of tobacco cut worm. Description: Diluted emulsion sprayed by settling tower on larvae (Example X). In kind it is in vivo. The note with it: emulsion diluted to 50 times, 1 ml. As for the experimental part:
Ten of the 3rd or 4th instar larvae of tobacco cut worm were put into a petri dish of 17 cm in diameter.
One ml of the present compound (4, 11, 28, 92, 94, 95, 109, 111) in form of an emulsion obtained in Example X, which were diluted to 50 times with water, were sprayed by means of a settling tower. The said larvae were removed into another petri dish with the leaves of the chinese cabbage leaves. Observation was made after 48 hrs. As a result, more than 90% of the larvae were dead in each case.

≈ marks a conversion by molar mass, not a printed value.

`C#CC(OC(=O)C1C(C=C(Cl)Cl)C1(C)C)C(C)=Cc1ccc2c(c1)OCO2` (stereo not drawn) [Compound 139, α-Ethynyl-β-methyl-3,4-methylenedioxy-cinnamyl 2',2'-dimethyl-3'-(2",2"-dichlorovinyl)-cyclopropanecarboxylate]: in data set [1], the “knock down percentage after 1 hour” value is “more than 50%” and the “mortality after 24 hours” value was “more than 80%”. In addition, the mortality (usually the share of the test organisms that died) at 1 % with adults of houseflies stood at 95%.
In the data set with adults of houseflies, `C#CC(C=C(c1ccccc1)c1ccccc1)OC(=O)C1C(C=C(Cl)Cl)C1(C)C` (stereo not shown) [Compound 138] returned a mortality at 1 % of 100%.
As for `C#CC(OC(=O)C1C(C=C(C)C)C1(C)C)C(C)=Cc1ccc(C)cc1` (stereo not drawn) [Compound 33, α-Ethynyl-β-methyl-4-methylcinnamyl chrysanthemate], the median lethal dose (LD50) (commonly the dose at which mortality reaches 50%) at 48 h in data set [2] was > 600 mg/kg. In addition, the LC50 (in general, the concentration lethal to half of the exposed cells or organisms) in data set [3] was found to be 0.34 ppm.
As for `C#CC(OC(=O)C1C(C=C(Cl)Cl)C1(C)C)C(C)=Cc1ccc(C#N)cc1` (stereo not shown) [Compound 137], in the data set with adults of houseflies, the mortality at 1 % stood at 100%.
`C#CC(C=Cc1ccccc1)OC(=O)C1C(C=C(C)C)C1(C)C` (stereo not drawn) [Compound 31, α-Ethynylcinnamyl chrysanthemate]: the LD50 at 48 h in [2] is > 500 mg/kg. Also, in the data set on tobacco cut worm, the “damage of the Chinese cabbages by tobacco cut worms” value (“damage of the Chinese cabbages” below) is on record as “the damage of the Chinese cabbages by tobacco cut worms was not found”. For the same molecule, in data set [3], the 50% lethal concentration (LC50) is 0.12 ppm. Further, in the data set on adult planthoppers, the “Mortality (%) After 1 day” value is 100% and the “Mortality (%) After 6 days” value came out at 75.8%. Besides, in data set [1], the “knock down percentage after 1 hour” value is recorded as “more than 50%” and the “mortality after 24 hours” value is “more than 80%”. Moreover, in the data set with adults of houseflies, the mortality at 1 % stood at 92%.
In the data set on housefly adults, `C#CC(C=CC)OC(=O)C1C(C=C(C)C)C1(C)C` (stereo not shown) [Compound 1, 1-Ethynyl-2-butenyl chrysanthemate] yielded a 50% lethal concentration (LC50) of 5500 µg/mL (≈ 22.3 mM). For the same molecule, the “increasing of the damage” value in [4] is recorded as “the increasing of the damage was not found”.
Turning to `C#CC(OC(=O)C1C(C=C(C)C)C1(C)C)C(=Cc1ccccc1)CC` (stereo not drawn) [Compound 63, α-Ethynyl-β-ethylcinnamyl chrysanthemate], in [2], the LD50 at 48 h is > 600 mg/kg. For the same molecule, the “damage of the Chinese cabbages” value in the data set on tobacco cut worm is “the damage of the Chinese cabbages by tobacco cut worms was not found”. This molecule yielded an LC50 in data set [3] of 0.14 ppm. In the data set on adult planthoppers, the “Mortality (%) After 1 day” value was 100% and the “Mortality (%) After 6 days” value came out at 53.3%. Besides, in data set [1], the “knock down percentage after 1 hour” value is on record as “more than 50%” and the “mortality after 24 hours” value is “more than 80%”. The molecule further came in with a mortality at 1 % with adults of houseflies of 95%.
Take `C#CC(OC(=O)C1C(C=C(C)C)C1(C)C)C(C)=Cc1ccc(C(C)C)cc1` (stereo not drawn) [Compound 46, α-Ethynyl-β-methyl-4-iso-propylcinnamyl chrysanthemate]: the LD50 at 48 h in data set [2] was > 600 mg/kg.
Consider `C#CC(OC(=O)C1C(C=C(Cl)Cl)C1(C)C)C(C)=Cc1c(C)cc(OC)cc1C` (stereo not drawn) [Compound 136, α-Ethynyl-β-methyl-2,6- -dimethyl-4-methoxy cinnamyl 2',2'-dimethyl-3'2"-2"- dichlorovinyl)-cyclopropane-carboxylate], for which the mortality at 1 % with adults of houseflies worked out at 90%.
`C#CC(OC(=O)C1C(C=C(C)C)C1(C)C)C(C)=Cc1ccccc1` (stereo not drawn) [Compound 32, α-Ethynyl-β-methylcinnamyl chrysanthemate]: the median lethal dose (LD50) at 48 h in data set [2] is > 500 mg/kg. For the same molecule, the “damage of the Chinese cabbages” value in the data set with tobacco cut worm is “the damage of the Chinese cabbages by tobacco cut worms was not found”. The molecule further showed an LC50 in data set [3] of 0.069 ppm. In addition, in the data set with adult planthoppers, the “Mortality (%) After 1 day” value worked out at 100% and the “Mortality (%) After 6 days” value came out at 100%. For the same molecule, in data set [1], the “knock down percentage after 1 hour” value is recorded as “more than 50%” and the “mortality after 24 hours” value is given as “more than 80%”. Further, the mortality at 1 % in the data set with adults of houseflies is 96%.
In the case of `C#CC(OC(=O)C1C(C=C(C)C)C1(C)C)C(C)=CCC` (stereo not shown) [Compound 4, 1-Ethynyl-2-methyl-2-pentenyl chrysanthemate], the “leafhoppers dead after 24 hrs” value with adult leafhoppers is reported as “more than 90%”. Besides, in data set [5], the “larvae dead after 48 hrs” value is given as “more than 90%”. In the data set with housefly adults, this molecule returned an LC50 of 1400 µg/mL (≈ 5.1 mM). For the same molecule, the “increasing of the damage” value in data set [4] is given as “the increasing of the damage was not found”.
As to `C#CC(C=CCc1ccccc1)OC(=O)C1C(C=C(C)C)C1(C)C` (stereo not drawn) [Compound 62, α-Ethynyl-γ-benzylallyl chrysanthemate], the “damage of the Chinese cabbages” value with tobacco cut worm is “the damage of the Chinese cabbages by tobacco cut worms was not found”. Further, in data set [3], the LC50 is given as 0.034 ppm. In the data set on adult planthoppers, the “Mortality (%) After 1 day” value is reported as 100% and the “Mortality (%) After 6 days” value came to 100%. Also, the mortality at 1 % in the data set on adults of houseflies is 93%.
`C#CC(OC(=O)C1C(C=C(C)C)C1(C)C)C(C)=Cc1ccccc1Cl` (stereo not drawn) [Compound 34, α-Ethynyl-β-methyl-2-chlorocinnamyl chrysanthemate]: the 50% lethal dose (LD50) at 48 h in data set [2] is > 600 mg/kg. Further, in [3], the LC50 was 0.14 ppm.
With `C#CC(OC(=O)C1C(C=C(C)C)C1(C)C)C(C)=Cc1ccc2c(c1)OCO2` (stereo not drawn) [Compound 35, α-Ethynyl-β-methyl-3,4-methylenedioxycinnamyl chrysanthemate], the LD50 at 48 h in [2] was > 600 mg/kg. Also, in data set [1], the “knock down percentage after 1 hour” value is “more than 50%” and the “mortality after 24 hours” value is “more than 80%”.
